# Data as given in the OligoGym collection.
# Oligonucleotides are written 5' to 3', each unit as a sugar letter and its base; * is a phosphorothioate linkage, no mark a phosphodiester; rarer units and linkages stand in square brackets, end groups in braces. Plain capitals give the bases only. d = 2'-deoxy (DNA); r = 2'-OH (RNA)
# Molecular target: UBE2E3
# Assay: reporter assay of Huesken 2005
# Conditions: siRNA
# Note: test concentration or dose not given here.
row,Substance,normalised inhibition (eCFP-eYFP dual reporter)
1,sense rArArGrGrArGrArUrArArCrArUrUrUrArUrGrAdTdT / antisense rUrCrArUrArArArUrGrUrUrArUrCrUrCrCrUrUdTdA,52%
2,sense rCrCrArArCrArGrArGrCrArGrArArCrArCrGrAdTdT / antisense rUrCrGrUrGrUrUrCrUrGrCrUrCrUrGrUrUrGrGdTdC,88.8%
3,sense rUrCrArGrArUrUrArUrCrCrArUrUrUrArArGrCdTdT / antisense rGrCrUrUrArArArUrGrGrArUrArArUrCrUrGrAdTdG,38.2%
4,sense rUrArUrUrUrGrUrUrCrCrCrUrUrUrUrGrArCrAdTdT / antisense rUrGrUrCrArArArArGrGrGrArArCrArArArUrAdGdA,45.2%
5,sense rArCrUrGrCrArArCrCrCrUrGrCrGrGrArUrCrCdTdT / antisense rGrGrArUrCrCrGrCrArGrGrGrUrUrGrCrArGrUdCdT,71.1%
6,sense rGrArCrCrArGrCrGrArGrArCrCrCrArGrCrCrGdTdT / antisense rCrGrGrCrUrGrGrGrUrCrUrCrGrCrUrGrGrUrCdCdG,54.7%
7,sense rArArArGrGrUrUrArCrUrUrUrCrCrGrCrArCrCdTdT / antisense rGrGrUrGrCrGrGrArArArGrUrArArCrCrUrUrUdGdG,50.7%
8,sense rCrArCrCrArArArGrGrUrUrArCrUrUrUrCrCrGdTdT / antisense rCrGrGrArArArGrUrArArCrCrUrUrUrGrGrUrGdGdC,58.8%
9,sense rCrCrUrCrCrUrCrCrUrArArUrUrGrCrArGrUrGdTdT / antisense rCrArCrUrGrCrArArUrUrArGrGrArGrGrArGrGdAdT,62.6%
10,sense rCrCrArArArCrUrCrUrCrUrArGrCrArArArArCdTdT / antisense rGrUrUrUrUrGrCrUrArGrArGrArGrUrUrUrGrGdTdG,69.8%
11,sense rArUrUrCrArGrArArGrGrArGrCrUrArGrCrUrGdTdT / antisense rCrArGrCrUrArGrCrUrCrCrUrUrCrUrGrArArUdTdC,42.3%
12,sense rGrCrUrGrGrGrCrCrUrArArArGrGrArGrArUrAdTdT / antisense rUrArUrCrUrCrCrUrUrUrArGrGrCrCrCrArGrCdAdC,67.2%
13,sense rArUrUrUrArArGrCrCrArCrCrArArArGrGrUrUdTdT / antisense rArArCrCrUrUrUrGrGrUrGrGrCrUrUrArArArUdGdG,64.2%
14,sense rCrArArArGrGrUrUrUrUrGrCrUrGrUrCrUrArUdTdT / antisense rArUrArGrArCrArGrCrArArArArCrCrUrUrUrGdAdA,92.4%
15,sense rArArCrArGrUrCrArGrGrGrArGrUrCrArUrCrUdTdT / antisense rArGrArUrGrArCrUrCrCrCrUrGrArCrUrGrUrUdGdA,58.5%
16,sense rUrGrArArGrArArCrArArGrArGrGrArArArGrAdTdT / antisense rUrCrUrUrUrCrCrUrCrUrUrGrUrUrCrUrUrCrAdGdG,89.3%
17,sense rUrGrCrUrArArGrUrUrArUrCrCrArCrUrArGrUdTdT / antisense rArCrUrArGrUrGrGrArUrArArCrUrUrArGrCrAdGdT,82.8%
18,sense rArGrCrCrUrGrArArGrArArCrArArGrArGrGrAdTdT / antisense rUrCrCrUrCrUrUrGrUrUrCrUrUrCrArGrGrCrUdCdT,89%
19,sense rGrUrCrArUrCrUrGrUrCrUrGrGrArCrArUrCrCdTdT / antisense rGrGrArUrGrUrCrCrArGrArCrArGrArUrGrArCdTdC,43.8%
20,sense rGrGrUrUrArCrUrUrUrCrCrGrCrArCrCrArGrAdTdT / antisense rUrCrUrGrGrUrGrCrGrGrArArArGrUrArArCrCdTdT,91.4%
21,sense rArArUrUrCrArGrArArGrGrArGrCrUrArGrCrUdTdT / antisense rArGrCrUrArGrCrUrCrCrUrUrCrUrGrArArUrUdCdT,71.2%
22,sense rCrGrArCrArGrGrArUrArGrCrCrArGrArCrArGdTdT / antisense rCrUrGrUrCrUrGrGrCrUrArUrCrCrUrGrUrCrGdTdG,78%
23,sense rGrCrGrArGrArCrCrCrArGrCrCrGrCrUrCrCrAdTdT / antisense rUrGrGrArGrCrGrGrCrUrGrGrGrUrCrUrCrGrCdTdG,69.2%
24,sense rArGrCrUrGrArArArUrArArCrCrCrUrUrGrArUdTdT / antisense rArUrCrArArGrGrGrUrUrArUrUrUrCrArGrCrUdAdG,82%
25,sense rUrGrCrGrGrArUrCrCrUrCrUrGrGrUrUrGrGrAdTdT / antisense rUrCrCrArArCrCrArGrArGrGrArUrCrCrGrCrAdGdG,75.8%
26,sense rCrUrGrUrArUrArUrGrArArGrGrUrGrGrUrGrUdTdT / antisense rArCrArCrCrArCrCrUrUrCrArUrArUrArCrArGdAdA,36.8%

row,Substance,normalised inhibition (eCFP-eYFP dual reporter)
1,sense rGrCrArArCrArUrCrArArCrArGrUrCrArGrGrGdTdT / antisense rCrCrCrUrGrArCrUrGrUrUrGrArUrGrUrUrGrCdAdG,66.1%
2,sense rGrGrArUrCrCrUrCrUrGrGrUrUrGrGrArArGrCdTdT / antisense rGrCrUrUrCrCrArArCrCrArGrArGrGrArUrCrCdGdC,59.8%
3,sense rArCrUrArUrUrUrCrArArArGrGrUrUrUrUrGrCdTdT / antisense rGrCrArArArArCrCrUrUrUrGrArArArUrArGrUdCdA,34.3%
4,sense rArArCrUrCrUrCrUrArGrCrArArArArCrCrArCdTdT / antisense rGrUrGrGrUrUrUrUrGrCrUrArGrArGrArGrUrUdTdG,52.4%
5,sense rUrGrUrCrUrArUrUrUrGrUrUrCrCrCrUrUrUrUdTdT / antisense rArArArArGrGrGrArArCrArArArUrArGrArCrAdGdC,86%
6,sense rGrArUrArUrCrArCrArUrUrUrUrCrArUrCrArGdTdT / antisense rCrUrGrArUrGrArArArArUrGrUrGrArUrArUrCdCdA,57.6%
7,sense rUrArArArGrArCrArArCrUrGrGrArGrUrCrCrCdTdT / antisense rGrGrGrArCrUrCrCrArGrUrUrGrUrCrUrUrUrAdAdG,43.8%
8,sense rCrCrUrUrArArArGrArCrArArCrUrGrGrArGrUdTdT / antisense rArCrUrCrCrArGrUrUrGrUrCrUrUrUrArArGrGdAdT,58.9%
9,sense rUrArArUrUrGrCrArGrUrGrCrUrGrGrGrCrCrUdTdT / antisense rArGrGrCrCrCrArGrCrArCrUrGrCrArArUrUrAdGdG,47.3%
10,sense rUrUrUrUrGrArCrArGrArCrUrGrCrArArCrCrCdTdT / antisense rGrGrGrUrUrGrCrArGrUrCrUrGrUrCrArArArAdGdG,50.3%
11,sense rCrArCrUrCrArGrUrArUrUrUrGrArCrCrArArCdTdT / antisense rGrUrUrGrGrUrCrArArArUrArCrUrGrArGrUrGdGdC,87.1%
12,sense rArCrArGrGrArUrArGrCrCrArGrArCrArGrUrGdTdT / antisense rCrArCrUrGrUrCrUrGrGrCrUrArUrCrCrUrGrUdCdG,55.2%
13,sense rGrArArGrGrArGrCrUrArGrCrUrGrArArArUrAdTdT / antisense rUrArUrUrUrCrArGrCrUrArGrCrUrCrCrUrUrCdTdG,88.5%
14,sense rArCrArCrCrArArArCrUrCrUrCrUrArGrCrArAdTdT / antisense rUrUrGrCrUrArGrArGrArGrUrUrUrGrGrUrGrUdTdT,90.1%
15,sense rGrUrCrArGrGrGrArGrUrCrArUrCrUrGrUrCrUdTdT / antisense rArGrArCrArGrArUrGrArCrUrCrCrCrUrGrArCdTdG,83.4%
16,sense rArCrArUrCrArArCrArGrUrCrArGrGrGrArGrUdTdT / antisense rArCrUrCrCrCrUrGrArCrUrGrUrUrGrArUrGrUdTdG,69.9%
17,sense rCrUrCrCrUrCrCrUrArArUrUrGrCrArGrUrGrCdTdT / antisense rGrCrArCrUrGrCrArArUrUrArGrGrArGrGrArGdGdA,34.3%
18,sense rUrCrUrCrUrArGrCrArArArArCrCrArCrUrGrCdTdT / antisense rGrCrArGrUrGrGrUrUrUrUrGrCrUrArGrArGrAdGdT,35.9%
19,sense rArUrCrArArCrUrArUrArCrUrUrGrGrUrCrCrAdTdT / antisense rUrGrGrArCrCrArArGrUrArUrArGrUrUrGrArUdCdT,59.5%
20,sense rArGrUrCrCrCrGrCrUrUrUrGrArCrUrArUrUrUdTdT / antisense rArArArUrArGrUrCrArArArGrCrGrGrGrArCrUdCdC,56.7%
21,sense rCrGrCrArCrCrArGrArArUrCrUrArUrCrArCrUdTdT / antisense rArGrUrGrArUrArGrArUrUrCrUrGrGrUrGrCrGdGdA,73.4%
22,sense rUrGrCrUrGrUrCrUrArUrUrUrGrUrUrCrCrCrUdTdT / antisense rArGrGrGrArArCrArArArUrArGrArCrArGrCrAdAdA,73.4%
23,sense rGrGrUrUrUrUrGrCrUrGrUrCrUrArUrUrUrGrUdTdT / antisense rArCrArArArUrArGrArCrArGrCrArArArArCrCdTdT,94.8%
24,sense rGrGrArGrUrCrArUrCrUrGrUrCrUrGrGrArCrAdTdT / antisense rUrGrUrCrCrArGrArCrArGrArUrGrArCrUrCrCdCdT,75.6%
25,sense rCrUrUrGrGrUrCrCrArCrCrGrGrGrUrUrCrUrGdTdT / antisense rCrArGrArArCrCrCrGrGrUrGrGrArCrCrArArGdTdA,68.4%
26,sense rUrCrUrGrGrArUrArUrCrArCrArUrUrUrUrCrAdTdT / antisense rUrGrArArArArUrGrUrGrArUrArUrCrCrArGrAdAdA,68.8%
